Data: paper PMC9967275, “Screening the Pathogen Box to Discover and Characterize New Cruzain and TbrCatL Inhibitors” (Pathogens, 2023)
“Also recorded” adds a separate entry of the source. Read-outs that look alike come from different tables or passages of the source.

Legend:
cruzain [1] = molecular target: T1, cruzain (Trypanosoma cruzi, UniProt P25779); assay: Mechanism of inhibition against cruzain (Michaelis-Menten, Lineweaver-Burk); format: biochemical; design: Cruzain is the truncated, recombinant-expressed cruzipain 1; Brian Shoichet (University of California San Francisco)
T1 sequence (P25779 123-337 limits assumed): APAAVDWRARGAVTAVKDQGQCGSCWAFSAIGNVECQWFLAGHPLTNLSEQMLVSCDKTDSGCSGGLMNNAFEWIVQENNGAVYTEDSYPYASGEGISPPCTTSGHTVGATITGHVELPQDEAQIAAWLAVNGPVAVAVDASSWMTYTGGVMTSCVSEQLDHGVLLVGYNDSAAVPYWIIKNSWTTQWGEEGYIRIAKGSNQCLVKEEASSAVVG
Experimental: Non-linear regression to Michaelis-Menten models and linear regression for the Lineweaver-Burk plot were performed. Ki was estimated by both methods. The effect of the inhibitor concentration on the Km app was evaluated using the General Linear F-test.

TbrCatL = molecular target: T2, TbrCatL (Trypanosoma brucei rhodesiense, UniProt Q95PM0); assay: TbrCatL enzymatic inhibition assay (cleavage of fluorogenic substrate Z-FR-AMC); format: biochemical
T2 construct: Conor Caffrey (University of California San Diego)
T2 sequence (Q95PM0 entry or part of it): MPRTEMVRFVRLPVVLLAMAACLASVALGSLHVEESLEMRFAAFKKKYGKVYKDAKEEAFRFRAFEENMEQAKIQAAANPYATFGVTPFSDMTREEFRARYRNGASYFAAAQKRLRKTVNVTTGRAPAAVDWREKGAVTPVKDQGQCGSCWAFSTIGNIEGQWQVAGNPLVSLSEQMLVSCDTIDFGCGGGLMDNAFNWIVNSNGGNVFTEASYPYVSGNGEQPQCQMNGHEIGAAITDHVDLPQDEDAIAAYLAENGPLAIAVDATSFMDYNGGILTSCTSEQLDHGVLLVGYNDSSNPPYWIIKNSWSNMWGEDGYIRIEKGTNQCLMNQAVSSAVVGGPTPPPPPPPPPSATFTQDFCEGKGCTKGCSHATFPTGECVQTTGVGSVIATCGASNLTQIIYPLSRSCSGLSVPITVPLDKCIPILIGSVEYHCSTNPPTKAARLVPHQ
How it was run: (§1)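 Recombinant enzymes assayed by Z-Phe-Arg-AMC cleavage at 25 °C, fluorescence 340/440 nm over 5–7 min, with 10 min or no enzyme–compound preincubation.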

cruzain [2] = molecular target: T1, cruzain; assay: biochemical
How it was run: as §1

cruzain [3] = molecular target: T1, cruzain; assay: Aggregation counter-assays: cruzain inhibition at varying Triton X-100 and after pre-incubation with BSA; format: biochemical; design: Cruzain is the truncated, recombinant-expressed cruzipain 1; Brian Shoichet (University of California San Francisco); details: for % Cruzain Inhibition (Mean ± SEM) 0.001% Triton + BSA 1 mg/mL / % Cruzain Inhibition (Mean ± SEM) 0.001% Triton X-100 / % Cruzain Inhibition (Mean ± SEM) 0.01% Triton X-100 / % Cruzain Inhibition (Mean ± SEM) 0.1% Triton X-100: compound µM: MMV687246 12.5, MMV687812 3.125, MMV688179 1.563, MMV688362 3.125, MMV688466 6.25, MMV690028 25
Experimental: To assess the effects of the Triton X-100 concentration on cruzain inhibition, assays were performed using 0.001%, 0.01%, and 0.1% Triton X-100. To evaluate the impact of pre-incubation with bovine serum albumin (BSA), 50 µL of a solution of the compound in the assay buffer containing 0.001% of Triton X-100 was incubated with 4 mg/mL of BSA (Sigma-Aldrich) for 10′ in a 96-well plate. Next, 50 µL of a solution containing circa 2 nM of cruzain in the same buffer was added to each well and incubated for another 10′. Finally, 100 µL of a solution of 5 µM Z-FR-AMC in the same buffer was added to each well and the fluorescence was immediately read. The final compound concentration varies and was selected to be near the compound IC50.
To investigate if inhibition was due to colloidal aggregation, a common cause of unspecific enzyme inhibition in in vitro assays, we employed two well-established experiments: the comparison of percentages of inhibition at varying Triton X-100 concentrations and the effect of compound pre-incubation with BSA on the percentage of inhibition. […] Pre-incubating a compound that aggregates with BSA saturates the protein-binding capacity of the aggregate.

DNA minor groove = tested on: DNA minor groove; design: method as in PMID 18247550, PMID 22497334; details: SPR, ITC, CD, and Tm experiments; cited from earlier work
T. cruzi = details: ref Pathogen Box data; read-out: EC50 against T. cruzi reported on PB; cited from earlier work
[4] = IC50 (µM ± SEM %) TbrCatL 0′, no pre-incubation
[5] = IC50 (µM ± SEM %) TbrCatL 10′ inc, 10′ pre-incubation
[6] = read-out: Inhibition at 5 µM (Mean ± SEM %) TbrCatL 0′
[7] = read-out: Inhibition at 5 µM (Mean ± SEM %) TbrCatL 10′ inc
[8] = read-out: Inhibition at 100 µM (Mean ± SEM %) TbrCatL 0′
[9] = read-out: Inhibition at 100 µM (Mean ± SEM %) TbrCatL 10′ inc
[10] = read-out: TbrCatL 0’ Inhibition
[11] = read-out: TbrCatL 10’ Inhibition
[12] = IC50 (µM ± SEM %) Cruzain 0′, no pre-incubation
[13] = IC50 (µM ± SEM %) Cruzain 10′ inc, 10′ pre-incubation
[14] = read-out: Cruzain 0’ Inhibition, 0’ (pre-incubation time), sheet "Screening results"
[15] = read-out: Cruzain 10’ Inhibition, 10’ (pre-incubation time), sheet "Screening results"
[16] = read-out: Inhibition at 5 µM (Mean ± SEM %) Cruzain 0′, 5 µM, no pre-incubation, initial screening
[17] = read-out: Inhibition at 5 µM (Mean ± SEM %) Cruzain 10′ inc, 5 µM, 10′ pre-incubation, initial screening
[18] = read-out: Inhibition at 100 µM (Mean ± SEM %) Cruzain 0′, 100 µM, no pre-incubation, solid samples
[19] = read-out: Inhibition at 100 µM (Mean ± SEM %) Cruzain 10′ inc, 100 µM, 10′ pre-incubation, solid samples
[20] = read-out: Inhibition of cruzain or TbrCatL (either enzyme) in the initial screening, 5 µM, either cruzain or TbrCatL, with or without pre-incubation
[21] = IC50 against cruzain and TbrCatL (summary), cruzain and TbrCatL, with or without pre-incubation

Compound | IC50 (TbrCatL; [4]) [µM] | IC50 (TbrCatL; [5]) [µM] | inhibition at 5 µM (TbrCatL; [6]) [%] | inhibition at 5 µM (TbrCatL; [7]) [%] | inhibition at 100 µM (TbrCatL; [8]) [%] | inhibition at 100 µM (TbrCatL; [9]) [%] | inhibition at 5 µM (TbrCatL; [10]) [%] | inhibition at 5 µM (TbrCatL; [11]) [%] | IC50 (cruzain [2]; [12]) [µM] | IC50 (cruzain [2]; [13]) [µM] | inhibition at 5 µM (cruzain [2]; [14]) [%] | inhibition at 5 µM (cruzain [2]; [15]) [%] | inhibition at 5 µM (cruzain [2]; [16]) [%] | inhibition at 5 µM (cruzain [2]; [17]) [%] | inhibition at 100 µM (cruzain [2]; [18]) [%] | inhibition at 100 µM (cruzain [2]; [19]) [%] | inhibition at 5 µM (cruzain [2]; [20]) [%] | % Cruzain Inhibition (Mean ± SEM) 0.001% Triton + BSA 1 mg/mL (cruzain [3]) [%] | % Cruzain Inhibition (Mean ± SEM) 0.001% Triton X-100 (cruzain [3]) [%] | % Cruzain Inhibition (Mean ± SEM) 0.1% Triton X-100 (cruzain [3]) [%] | further results
CN1CCN(S(=O)(=O)c2ccc(-c3ccc4c(Nc5ccc6nn[nH]c6c5)ccnc4c3)cc2)CC1 [MMV687246] | 9 ± 3 | 4.2 ± 0.6 | 29 ± 1 | 49 ± 4 | 92 ± 6 | 99 ± 1 | 29 | 49 | 14 ± 5 | 10 ± 2 | 24 | 39 | 24 ± 3 | 39 ± 3 | 72 ± 1 | 92 ± 3 | ≥ 40 | 45 ± 1 | 62 ± 3 | 32 ± 2 | Ki (cruzain [1]): 57 ± 6 µM; Mechanism of inhibition of cruzain (cruzain [1]): mixed inhibitor; also recorded: mixed inhibition; α value (mixed inhibition) (cruzain [1]; mixed model): 0.7 ± 0.2; Change of IC50 with vs without 10′ pre-incubation (cruzain [2]; against cruzain, 10 min): up to 2 fold; % Cruzain Inhibition (Mean ± SEM) 0.01% Triton X-100 (cruzain [3]): 51 ± 0%
CN1CCN(CCCOc2ncc(Nc3ncc(-c4ccc(C(F)(F)F)c(F)c4)nc3C(N)=O)cn2)CC1 [MMV687812] | 3.45 ± 0.05 | 3.6 ± 0.3 | 11 ± 3 | 5 ± 1 | 90 ± 2 | 93 | 11 | 5.3 | 2.2 ± 0.3 | 2.6 ± 0.03 | 42 | 27 | 41 ± 2 | 27 | 100 | 95 | ≥ 40 | 85 ± 1 | 92 ± 0 | 54 ± 1 | IC50 (cruzain [2]; [21]): 2 to 4 µM; Effect of a 10-fold increase in the concentration of Triton X-100 on cruzain inhibition (cruzain [3]; near the IC50): some reduction in the inhibition; Effect of pre-incubation of the compound with BSA on cruzain inhibition (cruzain [3]; near the IC50): did not reduce the inhibition of cruzain
COc1cc(C2=NCCN2)cc2cc(-c3ccc(C4=NCCN4)cc3)oc12 [MMV688362] | 2.9 ± 0.8 | 2.3 ± 0.1 | 9 ± 1 | 43 ± 4 | 100 | 100 | 9 | 43 | 4.2 ± 0.6 | 2.35 ± 0.02 | 19 | 27 | 19 ± 1 | 27 ± 3 | 100 | 100 | ≥ 40 | 29 ± 3 | 59 ± 2 | 25 ± 2 | IC50 (cruzain [2]; [21]): 2 to 4 µM; Binding to the DNA minor groove (DNA minor groove): known to bind to the DNA minor groove; EC50 (T. cruzi): 13 µM; % Cruzain Inhibition (Mean ± SEM) 0.01% Triton X-100 (cruzain [3]): 41 ± 2%; Effect of pre-incubation of the compound with BSA on cruzain inhibition (cruzain [3]; near the IC50): some reduction in the inhibition
